Test results from EP0470144B1, “BETA-HYDROXAMATE D-ASPARTIC ACID FOR TREATMENT OF VIRAL INFECTIONS AND TUMOURS” (priority 1989, dated 1990).
Values joined by “and” are separate entries in the source; they are usually repeats but may differ in a detail not shown here. Identical values can stand only once.

Key:
[1] = system: lymphocytes de donneurs sains; assay: Growth and cell mortality of uninfected lymphocytes from healthy donors; format: cell-based; settings: 0,5-2 mM DAH
Excerpt: Cette inhibition est dose-dépendante. Les essais ont d'abord porté sur des lymphoytes de donneurs sains (Figures 1 et 2). On a pu mettre en évidence cette activité sur deux modèles de réplication du HIV : a) lymphocytes normaux infectés par le virus purifié et b) coculture des lymphocytes des malades du SIDA et de lymphocytes normaux. On a mesuré l'activité transcriptase inverse pendant 22 jours dans le surnageant de cultures cellulaires comme critère de prolifération virale. Le traitement avec le DAH a duré 72 heures de J₀ à J₃ de la manipulation (Figures 3, 4 et 5). […] Par contre, le DAH s'est montré plus toxique vis-à-vis des lymphocytes infectés par le virus du SIDA (Figures 6 et 7).
Effet du DAH sur le taux de croissance de lymphocytes de donneurs sains.
(●) absence de DAH (o) concentration en DAH = 0,5 mM (□) concentration en DAH = 1 mM (△) concentration en DAH = 1,5 mM (◇) concentration en DAH = 2 mM • . En abscisses : temps de culture (en jours) • . En ordonnées : taux de croissance
Effet du DAH sur la mortalité cellulaire de lymphocytes sains.
(●) absence de DAH (o) concentration en DAH = 0,5 mM (□) concentration en DAH = 1 mM (△) concentration en DAH = 1,5 mM (◇) concentration en DAH = 2 mM • . En abscisses : temps de culture (en jours) • . En ordonnées : proportion de cellules mortes (en %)

[2] = biological target: T1, transcriptase inverse (RT) du FLV (Friend murine leukemia virus, UniProt P26810); assay: Reverse transcriptase (RT) activity of highly purified FLV, poly A-oligo dT substrate; format: biochemical; settings: at concentrations giving the anti-retroviral effect in cell culture
T1 construct: comme source de RT une préparation de FLV hautement purifié; from tissue; host or cells: highly purified FLV virus preparation (virions)
Excerpt: La transcriptase inverse étant la cible de divers agents anti-rétroviraux, il est intéressant de tester l'effet du DAH sur l'activité transcriptase inverse (RT) du FLV. Cet essai a été effectué en utilisant comme source de RT une préparation de FLV hautement purifié, et comme substrat du poly A-oligo dT. Les substrats ont été introduits dans le milieu réactionnel dans l'ordre suivant : DAH aux concentrations désirées, virus purifié, polyA-oligo dT, dTTP + ³HdTTP.

leucémie L1210 = assay: Antitumour activity in the L1210 leukaemia model, survival; format: in vivo, souris B6D2F1/J; settings: for Nombre d'animaux survivants: at 30 days
Excerpt: L'activité antitumorale du DAH et du LAH a été étudiée sur le modèle de leucémie L1210. Les cellules leucémiques L1210 sont maintenues par passages intrapéritonéaux dans la souris B6D2F1/J mâle. […] La durée d'observation est de 30 jours.

leucémie P388 = assay: Antitumour activity in the P388 leukaemia model, survival; format: in vivo, souris B6D2F1; settings: for Nombre d'animaux survivants: at 30 days
Excerpt: L'activité antitumorale du DAH a été aussi étudiée sur deux autres modèles murins : le lymphome L5178Y et la leucémie P388.
Les cellules de la leucémie P388 sont maintenues par passage intrapéritonéaux chez la souris DBA/2 et injectées, pour les essais, à la dose de […] par souris sur la souris B6D2F1.

[3] = Pre-clinical pharmacology: DAH levels in serum and urine after intraperitoneal injection; format: in vivo, souris B6D2F1; settings: 3 g/kg intraperitoneal
Excerpt: Le DAH a été dosé dans les sérums et les urines de souris B6D2F1 âgées de 8 semaines, ayant reçu une injection intrapéritonéale de DAH de 3 g/kg. Le DAH a été dosé par spectrophotométrie par mise en évidence du complexe Fe3+- hydroxamate à 550 nm.

[4] = Acute parenteral toxicity in mice (lethal doses); format: in vivo, souris B6D2F1; settings: evaluated at 24 hours and 14 days
Excerpt: La toxicité du DAH par voie parentérale a été évaluée chez la souris B6D2F1 âgée de six semaines et pesant entre 20 et 22 g. Pour chaque niveau de dose, on a utilisé treize mâles et treize femelles avec une période d'observation de 14 jours. La dose léthale (DL) a été évaluée 24 heures après l'injection de DAH puis à 14 jours. Dans ces conditions, on a pu montrer que la DL 10 (10 % de mortalité) était observée pour des posologies de 8,5-9 g/kg, la DL 50 correspondait à 11-12 g/kg et la DL 90 à 14-15 g/kg. Il n'a pas été observé de différence significative de mortalité à 24 heures et à 14 jours pour un niveau de dose donné.

[5] = Toxicity in dogs (NCI recommendations), intravenous administration; format: in vivo, chiens Beagle
Excerpt: En suivant les recommandations du National Cancer Institute (NCI), on a déterminé : a) la dose maximale non toxique, b) la dose toxique faible, c) la dose maximale toxique non léthale, d) la dose léthale.
Ces études ont été réalisées sur des chiens Beagle âgés de six à sept mois et pesant 6,5 à 7,5 kg. Pour mettre en évidence les effets toxiques du DAH, on a mesuré des paramètres cliniques, morphologiques, biochimiques et hématologiques.
L'évaluation de la fréquence cardiaque, l'électrocardiogramme, la pression artérielle (mesurée par cathétérisme intra-artériel), et la fréquence respiratoire ont été mesurées chez des chiens anesthésiés par l'alphachloralose.

[6] = LD50 comparison of DAH and LAH; settings: in vivo

## N[C@@H](CC(=O)NO)C(=O)O [DAH, D-acide aspartique β-hydroxamate]
[1]
  toxicité pour les lymphocytes non infectés par le virus HIV: n'est pas toxique
[2]
  effet sur l'activité RT: aucun effet
leucémie L1210; 0,5 g/kg x4/j, days 1,2,3
  T/Cx100: 113%
  Nombre d'animaux survivants: 0/5
leucémie L1210; 1,5 g/kg x4/j, days 1,2,3
  T/Cx100: 276%
  Nombre d'animaux survivants: 0/5
leucémie L1210; 1,5 g/kg x4/j, days 1,2,3,4
  T/Cx100: 347%
  Nombre d'animaux survivants: 3/5
leucémie L1210; 1 g/kg x3/j, days 1-10
  T/Cx100: 347%
  Nombre d'animaux survivants: 3/5
leucémie L1210; 1 g/kg x4/j, days 1,2,3
  T/Cx100: 171%
  Nombre d'animaux survivants: 0/5
leucémie L1210; 1 g/kg, 4 times a day for 3 days
  survie des animaux traités: prolongation très significative de la survie
leucémie L1210; dose of 1 g/kg or more, 3 or 4 times a day
  activité antitumorale: activité antitumorale significative
leucémie P388; 1,5 g/kg x4/j, days 1,2,3
  T/Cx100: 155%
  Nombre d'animaux survivants: 0/5
leucémie P388; 1,5 g/kg x 4/j, days 1,2,3,4,5
  T/Cx100: 190%
  Nombre d'animaux survivants: 0/5
[3]
  modification structurale du DAH éliminé par voie urinaire: aucune modification structurale
  pic plasmatique moyen: 6 mg/mL
  pic urinaire: 220 mg/mL
  temps du pic plasmatique: 20 min
  élimination urinaire prolongée sur: 24 heures
[3]; after injection
  temps du pic urinaire: 250 min
[3]; decrease of plasma concentration
  demi-vie: 35 min
[4]
  DL 10 (10 % de mortalité): 8,5-9 g/kg and 8,5 g/kg
  DL 50: 11 to 12 g/kg
  DL 90: 14 to 15 g/kg
[5]; 5 g/kg, 8th day after injection, return to pre-treatment level seven to ten days later
  nadir plaquettes: 39 x 109 plaquettes/l
[5]; 9 g/kg, twenty-two days after injection
  nadir plaquettes: 17 x 109 plaquettes/l
[5]; 9 g/kg, two months later
  récupération partielle (plaquettes): 56 x 10⁹/l
[5]; anaesthetised dogs, intravenous 1 to 5 g/kg
  fréquence cardiaque, électrocardiogramme, pression artérielle, fréquence respiratoire: aucune modification
[5]; dog, in vivo
  dose maximale non toxique: 2,5-3 g/kg
  dose toxique faible: 5000 mg/kg
  dose toxique maximale non léthale: ~9000 mg/kg
[5]; doses up to 9 g/kg
  toxicité de la fonction rénale ou hépatique: Aucune toxicité
[5]; including high doses (9 g/kg)
  toxicité sur les lignées granulo-monocytaires et érythrocytaires: Aucune toxicité
[5]; intravenous
  dose à partir de laquelle une toxicité sur la lignée plaquettaire a été constatée: ≥ 5000 mg/kg
[5]; intravenous 1 to 10 g/kg (10 % solution), during administration, with anorexia up to 24 hours
  Effets toxiques d'apparition immédiate: vomissements
[5]; intravenous, two weeks, five weekly injections of 1 g/kg
  tolérance à l'administration réitérée: aucun signe d'intolérance autre que des vomissements
[5]; one dog, dose of more than 10 g/kg, avoided later by prehydration
  complication rénale: précipitation des cristaux de DAH dans les tubules rénaux
[6]
  DL 50 %: 10 g/kg
